# ChEMBL document CHEMBL3853288, “Biginkgosides A-I, Unexpected Minor Dimeric Flavonol Diglycosidic Truxinate and Truxillate Esters from Ginkgo biloba Leaves and Their Antineuroinflammatory and Neuroprotective Activities” (J Nat Prod, 2016)
# Assays:
# [1] = Antineuroinflammatory activity in mouse BV2 cells assessed as inhibition of LPS-induced NO production incubated for 4 hrs followed by LPS stimulation for 24 hrs by Griess assay; format: functional, cell-based; conditions: BV-2
# SH-SY5Y [2] = experiment: Neuroprotection against amyloid beta (25 to 35)-induced cell toxicity in human SH-SY5Y cells assessed as cell viability at 1 uM incubated for 2 hrs followed by amyloid beta (25 to 35) treatment for 24 hrs by MTT assay (reference value: 62.4 +/- 3.5%); format: functional; conditions: read-out: Activity
# [3] = Cytotoxicity against LPS-stimulated mouse BV2 cells assessed as cell viability at 20 uM incubated for 4 hrs followed by LPS stimulation for 24 hrs by MTT assay; format: toxicity, BV-2; conditions: read-out: Activity
# SH-SY5Y [4] = experiment: Neuroprotection against amyloid beta (25 to 35)-induced cell toxicity in human SH-SY5Y cells assessed as cell viability at 10 uM incubated for 2 hrs followed by amyloid beta (25 to 35) treatment for 24 hrs by MTT assay (reference value: 62.4 +/- 3.5%); format: functional; conditions: read-out: Activity
Structure (SMILES),IC50 [1],other results
C[C@@H]1O[C@@H](Oc2c(-c3ccc(O)cc3)oc3cc(O)cc(O)c3c2=O)[C@H](O[C@@H]2O[C@H](COC(=O)[C@@H]3[C@H](C(=O)OC[C@H]4O[C@@H](O[C@H]5[C@H](Oc6c(-c7ccc(O)cc7)oc7cc(O)cc(O)c7c6=O)O[C@@H](C)[C@H](O)[C@H]5O)[C@H](O)[C@@H](O)[C@@H]4O)[C@@H](c4ccc(O)cc4)[C@@H]3c3ccc(O)cc3)[C@@H](O)[C@H](O)[C@H]2O)[C@H](O)[C@H]1O,> 100 µM,–
C[C@@H]1O[C@@H](Oc2c(-c3ccc(O)cc3)oc3cc(O)cc(O)c3c2=O)[C@H](O[C@@H]2O[C@H](COC(=O)[C@@H]3[C@@H](C(=O)OC[C@H]4O[C@@H](O[C@H]5[C@H](Oc6c(-c7ccc(O)cc7)oc7cc(O)cc(O)c7c6=O)O[C@@H](C)[C@H](O)[C@H]5O)[C@H](O)[C@@H](O)[C@@H]4O)[C@@H](c4ccc(O)cc4)[C@@H]3c3ccc(O)cc3)[C@@H](O)[C@H](O)[C@H]2O)[C@H](O)[C@H]1O,> 100 µM,–
C[C@@H]1O[C@@H](Oc2c(-c3ccc(O)cc3)oc3cc(O)cc(O)c3c2=O)[C@H](O[C@@H]2O[C@H](COC(=O)[C@H]3[C@H](C(=O)OC[C@H]4O[C@@H](O[C@H]5[C@H](Oc6c(-c7ccc(O)c(O)c7)oc7cc(O)cc(O)c7c6=O)O[C@@H](C)[C@H](O)[C@H]5O)[C@H](O)[C@@H](O)[C@@H]4O)[C@@H](c4ccc(O)cc4)[C@@H]3c3ccc(O)cc3)[C@@H](O)[C@H](O)[C@H]2O)[C@H](O)[C@H]1O,> 100 µM,viability at 1 µM (SH-SY5Y [2]): 96.7%
CNC(=N)NCCC[C@H](N)C(=O)O [TILARGININE],–,"viability at 24 h, 20 µM [3]: 98.5%"
C[C@@H]1O[C@@H](Oc2c(-c3ccc(O)cc3)oc3cc(O)cc(O)c3c2=O)[C@H](O[C@@H]2O[C@H](COC(=O)[C@@H]3[C@H](C(=O)OC[C@H]4O[C@@H](O[C@H]5[C@H](Oc6c(-c7ccc(O)cc7)oc7cc(O)cc(O)c7c6=O)O[C@@H](C)[C@H](O)[C@H]5O)[C@H](O)[C@@H](O)[C@@H]4O)[C@@H](c4ccc(O)cc4)[C@H]3c3ccc(O)cc3)[C@@H](O)[C@H](O)[C@H]2O)[C@H](O)[C@H]1O,> 100 µM,–
C[C@@H]1O[C@@H](Oc2c(-c3ccc(O)cc3)oc3cc(O)cc(O)c3c2=O)[C@H](O[C@@H]2O[C@H](COC(=O)[C@H]3[C@H](C(=O)OC[C@H]4O[C@@H](O[C@H]5[C@H](Oc6c(-c7ccc(O)cc7)oc7cc(O)cc(O)c7c6=O)O[C@@H](C)[C@H](O)[C@H]5O)[C@H](O)[C@@H](O)[C@@H]4O)[C@@H](c4ccc(O)cc4)[C@@H]3c3ccc(O)cc3)[C@@H](O)[C@H](O)[C@H]2O)[C@H](O)[C@H]1O,> 100 µM,–
C[C@@H]1O[C@@H](Oc2c(-c3ccc(O)c(O)c3)oc3cc(O)cc(O)c3c2=O)[C@H](O[C@@H]2O[C@H](COC(=O)[C@@H]3[C@H](C(=O)OC[C@H]4O[C@@H](O[C@H]5[C@H](Oc6c(-c7ccc(O)c(O)c7)oc7cc(O)cc(O)c7c6=O)O[C@@H](C)[C@H](O)[C@H]5O)[C@H](O)[C@@H](O)[C@@H]4O)[C@@H](c4ccc(O)cc4)[C@H]3c3ccc(O)cc3)[C@@H](O)[C@H](O)[C@H]2O)[C@H](O)[C@H]1O,> 100 µM,–
C[C@@H]1O[C@@H](Oc2c(-c3ccc(O)cc3)oc3cc(O)cc(O)c3c2=O)[C@H](O[C@@H]2O[C@H](COC(=O)[C@H]3[C@H](c4ccc(O)cc4)[C@@H](C(=O)OC[C@H]4O[C@@H](O[C@H]5[C@H](Oc6c(-c7ccc(O)cc7)oc7cc(O)cc(O)c7c6=O)O[C@@H](C)[C@H](O)[C@H]5O)[C@H](O)[C@@H](O)[C@@H]4O)[C@@H]3c3ccc(O)cc3)[C@@H](O)[C@H](O)[C@H]2O)[C@H](O)[C@H]1O,17.2 µM,"viability at 24 h, 20 µM [3]: 97.7%"
C[C@@H]1O[C@@H](Oc2c(-c3ccc(O)c(O)c3)oc3cc(O)cc(O)c3c2=O)[C@H](O[C@@H]2O[C@H](COC(=O)[C@H]3[C@H](c4ccc(O)cc4)[C@@H](C(=O)OC[C@H]4O[C@@H](O[C@H]5[C@H](Oc6c(-c7ccc(O)c(O)c7)oc7cc(O)cc(O)c7c6=O)O[C@@H](C)[C@H](O)[C@H]5O)[C@H](O)[C@@H](O)[C@@H]4O)[C@@H]3c3ccc(O)cc3)[C@@H](O)[C@H](O)[C@H]2O)[C@H](O)[C@H]1O,> 100 µM,–
C[C@@H]1O[C@@H](Oc2c(-c3ccc(O)c(O)c3)oc3cc(O)cc(O)c3c2=O)[C@H](O[C@@H]2O[C@H](COC(=O)[C@H]3[C@H](C(=O)OC[C@H]4O[C@@H](O[C@H]5[C@H](Oc6c(-c7ccc(O)c(O)c7)oc7cc(O)cc(O)c7c6=O)O[C@@H](C)[C@H](O)[C@H]5O)[C@H](O)[C@@H](O)[C@@H]4O)[C@@H](c4ccc(O)cc4)[C@@H]3c3ccc(O)cc3)[C@@H](O)[C@H](O)[C@H]2O)[C@H](O)[C@H]1O,2.91 µM,"viability at 24 h, 20 µM [3]: 99%"
O=C(O[C@@H]1Cc2c(O)cc(O)cc2O[C@@H]1c1cc(O)c(O)c(O)c1)c1cc(O)c(O)c(O)c1 [EPIGALOCATECHIN GALLATE],–,viability at 10 µM (SH-SY5Y [4]): 99%
